Results as given in patent US6310247A, “7-aryl-6(Z)-heptatrienoic acid retinamides” (Hoffmann-LA Roche Inc., priority 1999, dated 2001).
Like-named read-outs stand apart in the source and are kept apart here.

Columns and labels:
MDA 231 cells = assay: Cell growth inhibition: MTT assay, MDA 231 (ER- breast carcinoma); type: cell-based; conditions: Homo sapiens, MDA-MB-231, read-out: % inhibition of cell growth compared to no drug control
Procedure: ER- breast carcinoma, human (MDA-231) obtained from ATCC (HTB 22), were grown in Eagle's MEM medium supplemented with non-essential amino acids, sodium pyruvate, and Earle's BSS, 10% FBS, and 13 ng/mL gentamicin. Cells were incubated at 37° C., 4.5% CO2 and 95.5% humidified air.
(§1) 1. Cell growth inhibition: MTT Assay
(§2) The compounds of formula 1 were tested for ability to inhibit cell growth using the standard MTT assay, a tetrazolium-based assay which measures the viability of cells in culture. Cells were harvested upon reaching 70-80% confluency and pelleted. The cells were then resuspended in medium in which FBS was replaced with Hyclone's Charcoal/Dextran stripped FBS, and seeded (2 mL/well) into 6-well plates (Corning) at a density allowing for linear growth over a four day assay period. Compounds of formula 1 (10 mM stock in dimethylsulfoxide (DMSO)) were added 18-24 hours post-seeding. Compound dilutions were prepared in the appropriate growth media and added to the cells for final concentrations of 10, 3.3 and 1 μM in 0.1% DMSO. At 24, 48 and 72 hr. time points, MTT (3-[4,5-dimethylthiazol-2-yl-2,5-diphenyltetrazolium bromide) stock solution (5mg/mL in 1 PBS) was added to the cells plates (625 μL/well) which were then incubated for 2.5 hours. Liquid was aspirated from the wells and 1 mL/well of 95% ethanol was added to solubilize the formazan reaction product. The plates were shaken (Bellco Mini-Orbital Shaker) for 15 minutes. The solubilized formazan was then transferred (50 μls) into a 96-well plate and the optical densities (OD) were measured (Bio-Tek Microplate Reader) at 570 nm and reference wavelength of 660 nm. Percentage of inhibition of cell growth was calculated according to the following formula: [formula]

MDA 435 cells = assay: Cell growth inhibition: MTT assay, MDA 435 (ER- breast carcinoma); type: cell-based; conditions: Homo sapiens, MDA435, read-out: % inhibition of cell growth compared to no drug control
Procedure: (§3) ER- breast carcinoma, human (MDA-435) obtained from Dr. Janet Price, MDA Cancer Center, Houston, Tex., were grown in Gibco's RPMI 1640 media supplemented with sodium pyruvate, 10% FBS and 13 ng/mL gentamicin. Cells were incubated at 37° C., 4.5% CO2 and 95.5% humidified air.
as §1, §2

MDA-435 cells = assay: Apoptosis: cell death detection by ELISA, MDA-435; type: cell-based, human; conditions: for fold induction at 1 µM / fold induction at 3.3 µM / fold induction at 10 µM: Homo sapiens, read-out: Fold induction of apoptosis compared to no drug control
Procedure: as §3
2. Apoptosis: Cell death detection by ELISA:
Compounds of formula 1 were tested for the ability to cause apoptosis as follows:
Cells and media were collected, cells were pelleted, resuspended in 100 μl lysis buffer (50 mM Tris-Cl (pH=8.0), 20 mM EDTA, 1% NP-40e) and incubated 30 minutes at 4° C. to lyse. Cell debris was spun down and an aliquot (30 μl) of the […] was removed for protein determination and stored at -20° C. An additional 280 μl of lysis buffer, was added, mixed thoroughly and spun down at 14,000 RPM for 10 minutes at 4° C. An aliquot was removed (180 μl) and the sample was stored at -20° C. until testing.
A commercially available apoptosis detection kit, obtained from Boehringer Mannheim (Cat. No. 1544-674), was used as per the directions provided with the kit (Cell Death Detection ELISA). However, the protocol was modified in that a 1:40 to 1:100 dilution of sample was prepared, rather than the recommended 1:10 dilution, due to the increase in cell number used to prepare the sample extract and the subsequent increase in ELISA reactivity. The assay measures apoptosis by quantifying the amount of nucleosomal fragmentation from the extracts of cells treated with the test compounds (samples). These nucleosomal fragments, generated by the activation of endonucleases, are a known downstream effector of apoptosis. Antihistone antibodies are used to fix any nucleosomal fragments in the sample to the well of the microtiter plates. The sample is then incubated with anti-DNA antibodies conjugated to peroxidase and subsequently incubated with the peroxidase substrate, ABTS. The resulting colorimetric change is measured spectrophotometrically at 405/490nm.
The total protein content of each sample was determined for the purpose of normalizing the ELISA values to amount of sample loaded. Microplate assay protocol described in the instruction manual, for (Biorad DC Assay, Cat.#500-0116) section 5.2. The protein concentrations were calculated based upon a linear regression curve.
d) ELISA assay calculations
Relative ELISA O.D. readings are determined by subtracting the ELISA plate background O.D. value. No drug control O.D. value (lysis buffer only) was subtracted from sample O.D. value. A correction coefficient (CC), based on the sample protein concentration compared to no drug control, was determined to correct the sample O.D. following subtraction of the background O.D. (BCS O.D.). The fold increase over no drug control is calculated and normalized to the total protein concentration of the samples by multiplying against the correction coefficient.
To determine the fold increase in ELISA O.D., obtain the following O.D. measurements:
ELISA plate background--lysis buffer only (EPB);
no drug treated control--cell sample treated with DMSO (NDT);
drug treated sample--cell sample treated with a compound of formula 1 (DT) Subtract EPB from NDT (NDT-EPB) and DT (DT-EPB). The fold increase of the treated over the control is then (DT-EPB)/(NDT-EPB).
To determine the total protein concentration of the samples, obtain the total protein concentration in mg/ul calculated using standard linear regression formula (y=mx+b) based on BSA standards. B=ELISA background. Protein concentration (PC)(mg/ml)=(sample absorbance-b)/x.
Correction coefficient (cc) is (NDT)(PC)/(DT)(PC).
Determine fold increase of ELISA (FT) normalized to total PC:
nDT is DT×cc (which is DT O.D. normalized to PC)
nNDT is NDT×cc (which is NDT O.D. normalized to PC)
FI normalized to PC is nDT/nNDT.

## C/C(=C/C=C/C(C)=C/C(=O)Nc1ccc(O)cc1)c1cc(C(F)(F)F)cc(C(F)(F)F)c1 [N-(4-hydroxyphenyl)-(2E,4E,6Z)-7-[3,5-bis(trifluoromethyl)phenyl]-3,7-dimethyl-2,4,6-heptatrienamide]
MDA 231 cells; 24 hours
  inhibition at 1 µM: 18%
  inhibition at 3.3 µM: 30%
  inhibition at 10 µM: 26%
MDA 231 cells; 48 hours
  inhibition at 1 µM: 39%
  inhibition at 3.3 µM: 35%
  inhibition at 10 µM: 61%
MDA 231 cells; 72 hours
  inhibition at 1 µM: 46%
  inhibition at 3.3 µM: 62%
  inhibition at 10 µM: 71%
MDA 435 cells; 24 hours
  inhibition at 1 µM: 47%
  inhibition at 3.3 µM: 78%
  inhibition at 10 µM: 77%
MDA 435 cells; 48 hours
  inhibition at 1 µM: 59%
  inhibition at 3.3 µM: 91%
  inhibition at 10 µM: 95%
MDA 435 cells; 72 hours
  inhibition at 1 µM: 94%
  inhibition at 3.3 µM: 96%
  inhibition at 10 µM: 98%
MDA-435 cells; MDA435, 24 h, 24 hrs
  fold induction at 1 µM: 3
  fold induction at 3.3 µM: 6
  fold induction at 10 µM: 6
MDA-435 cells; MDA435, 48 h, 48 hrs
  fold induction at 1 µM: 3
  fold induction at 3.3 µM: 10
  fold induction at 10 µM: 16
MDA-435 cells; MDA435, 72 h, 72 hrs
  fold induction at 1 µM: 4
  fold induction at 3.3 µM: 12
  fold induction at 10 µM: 34
MDA-435 cells; after 24 hours
  Induction of apoptosis (in words): induces significant apoptosis
